In US9868937B2, “Cell and gene based methods to improve cardiac function” (University of Washington, priority 2011, dated 2018):
“Also recorded” adds a separate entry of the source.

Tested on: mouse aortic smooth muscle
Assay: Mouse aortic smooth muscle contraction in skinned muscle strips with dATP vs. ATP
Format: biochemical
Description: dATP has no affect on mouse aortic smooth muscle force development. To begin studying potential systemic effects of elevated dATP, we collaborated with Dr. Frank Brozovich (Mayo Clinic) to determine if dATP affects mouse aortic smooth muscle contraction.

Nc1ncnc2c1ncn2[C@H]1C[C@H](O)[C@@H](COP(=O)(O)OP(=O)(O)OP(=O)(O)O)O1 [dATP, 2 deoxy-ATP]
level of myosin light chain phosphorylation (control measurements (data not shown)): did not change
aortic smooth muscle contraction (dATP vs. ATP as the contractile substrate): did not differ; also recorded: did not alter contraction
